ChEMBL document CHEMBL1201862, “PubChem BioAssay data set” (2004)
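Values below derive from 48-hour exposures of cells grown in 96-well plates, with endpoints linearly interpolated between the two concentrations bracketing the appropriate inhibition level. GI50 is the concentration that inhibits growth by half.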 Calls of active or inactive are those of the source. No stated cut-off is given here; in the data, active = GI50 up to about 1.1 µM and inactive = higher.

Assays:
Assay in all cases: NCI-60 cell line screen, 48 h
[1] = system: DMS-273
[2] = system: SNB-78
[3] = system: LXFL 529
[4] = system: DLD-1
[5] = system: M19-MEL
[6] = system: DMS-114
[7] = system: KM-20L2
[8] = system: XF498
[9] = system: RXF 631

| SMILES | GI50 [1] | GI50 [2] | GI50 [3] | GI50 [4] | GI50 [5] | GI50 [6] | GI50 [7] | GI50 [8] | GI50 [9] |
| --- | --- | --- | --- | --- | --- | --- | --- | --- | --- |
| O=S(=O)(c1ccccc1)n1cnc(CCc2ccccc2)n1 | > 100 µM (inactive) | > 100 µM (inactive) | > 100 µM (inactive) | > 100 µM (inactive) | > 100 µM (inactive) | > 100 µM (inactive) | > 100 µM (inactive) | – | – |
| COC1=CC(=O)c2c(cc3c(c2O)-c2c(OC)cc4cc5c(c(O)c4c2OC(=O)CC(C)(O)C3)C(=O)CC(C)(O)C5)C1=O (stereo unspecified) | 1.64 µM (inactive) | 1.85 µM (inactive) | 1.16 µM (inactive) | 2.63 µM (inactive) | 0.379 µM (active) | 1.69 µM (inactive) | 1.63 µM (inactive) | 1.37 µM (inactive) | – |
| COc1ccc2c(c1)OCCCN(C)OC2c1ccccc1 (stereo unspecified) | > 100 µM (inactive) | > 100 µM (inactive) | > 100 µM (inactive) | – | > 100 µM (inactive) | > 100 µM (inactive) | > 100 µM (inactive) | – | – |
| Cc1ccc(S(=O)(=O)SC(C)(C)C)cc1 | 19.8 µM (inactive) | 51.2 µM (inactive) | 32.7 µM (inactive) | 18.5 µM (inactive) | 33.8 µM (inactive) | 16.9 µM (inactive) | – | 15.6 µM (inactive) | > 100 µM (inactive) |
| O=C1/C(=N\O)S(=O)(=O)c2ccccc21 | > 100 µM (inactive) | > 100 µM (inactive) | > 100 µM (inactive) | > 100 µM (inactive) | > 100 µM (inactive) | > 100 µM (inactive) | 59.2 µM (inactive) | – | > 100 µM (inactive) |
| C[n+]1c2ccccc2c(/C=N\NS(=O)(=O)c2ccc(O)c(C(=O)O)c2)c2ccccc21 | 35.6 µM (inactive) | > 100 µM (inactive) | – | 58.7 µM (inactive) | 99.8 µM (inactive) | 34 µM (inactive) | 53.6 µM (inactive) | 14.9 µM (inactive) | 31.6 µM (inactive) |
| CCCN1C(=O)C/C(=C\C(C)=O)Nc2ccccc21 | > 100 µM (inactive) | 80.2 µM (inactive) | > 100 µM (inactive) | > 100 µM (inactive) | > 100 µM (inactive) | 71.4 µM (inactive) | – | > 100 µM (inactive) | – |
| O=C1C2Cc3ccccc3CN2C(=O)N1CCN1CCOCC1 (stereo unspecified) | > 100 µM (inactive) | – | > 100 µM (inactive) | > 100 µM (inactive) | > 100 µM (inactive) | > 100 µM (inactive) | > 100 µM (inactive) | – | > 100 µM (inactive) |
| O=C(c1ccccc1)c1c(-c2ccccc2)sc2nc3ccccc3nc12 | > 100 µM (inactive) | 74 µM (inactive) | – | – | > 100 µM (inactive) | > 100 µM (inactive) | > 100 µM (inactive) | > 100 µM (inactive) | – |
| N=C(N)NS(=O)(=O)c1ccc(Nc2c3ccccc3nc3c(C(=O)Nc4ccc(S(N)(=O)=O)cc4)cccc23)cc1 | > 100 µM (inactive) | 76.4 µM (inactive) | 26.8 µM (inactive) | > 100 µM (inactive) | > 100 µM (inactive) | 45 µM (inactive) | > 100 µM (inactive) | 25.3 µM (inactive) | – |
| O=C1c2ccccc2-c2cccc3ccc(Cc4ccccc4)c1c23 | > 100 µM (inactive) | > 100 µM (inactive) | > 100 µM (inactive) | > 100 µM (inactive) | > 100 µM (inactive) | > 100 µM (inactive) | > 100 µM (inactive) | > 100 µM (inactive) | > 100 µM (inactive) |
| CNC(=O)ON(C(C)=O)C(=O)NC [CARACEMIDE] | 75.2 µM (inactive) | 133 µM (inactive) | – | 95.1 µM (inactive) | 112 µM (inactive) | 31.1 µM (inactive) | 104 µM (inactive) | 41.3 µM (inactive) | – |
| Cc1cc(=O)cc2sc3cc(Cl)ccc3nc1-2 | 6.17 µM (inactive) | 17 µM (inactive) | 15.2 µM (inactive) | 6.49 µM (inactive) | 16.3 µM (inactive) | – | 17.4 µM (inactive) | 4.28 µM (inactive) | – |
| Cc1ccc(C(=O)/C=C/c2cccc([N+](=O)[O-])c2)cc1 | > 83.4 µM (inactive) | > 100 µM (inactive) | 37.8 µM (inactive) | 44 µM (inactive) | > 44.6 µM (inactive) | 46.5 µM (inactive) | 36.6 µM (inactive) | – | > 73.8 µM (inactive) |
| COc1ccccc1/C=C(\C#N)c1ccccc1 | 16.8 µM (inactive) | 31.2 µM (inactive) | 36.1 µM (inactive) | 28.1 µM (inactive) | 32.6 µM (inactive) | 16.5 µM (inactive) | 23.6 µM (inactive) | – | – |
| COC(=O)C(=O)C(C#N)c1c(Cl)cccc1Cl (stereo unspecified) | > 100 µM (inactive) | > 100 µM (inactive) | > 100 µM (inactive) | > 100 µM (inactive) | > 100 µM (inactive) | > 100 µM (inactive) | > 100 µM (inactive) | > 100 µM (inactive) | > 100 µM (inactive) |
| Cc1cc([N+](=O)[O-])ccc1Nc1cccc(Cl)c1C | 14.6 µM (inactive) | – | 14.4 µM (inactive) | 14.6 µM (inactive) | 16.5 µM (inactive) | 13.5 µM (inactive) | 14 µM (inactive) | – | 16.2 µM (inactive) |
| CCOC(=O)C(=Cc1cccnc1C)C(=O)OCC | 3.82 µM (inactive) | – | 7.57 µM (inactive) | 9.27 µM (inactive) | 7.91 µM (inactive) | 13.7 µM (inactive) | 3.6 µM (inactive) | 12.6 µM (inactive) | 11.9 µM (inactive) |
| CN(C)CCCNc1ccnc2c([N+](=O)[O-])cccc12 | 14.7 µM (inactive) | 31.2 µM (inactive) | – | – | 2.44 µM (inactive) | 2.48 µM (inactive) | 4.36 µM (inactive) | 14.8 µM (inactive) | – |
| O=C(c1ccccc1)c1oc2ccc(Br)cc2c1-c1cnn(-c2ccccc2)c1 | > 100 µM (inactive) | > 100 µM (inactive) | > 100 µM (inactive) | > 100 µM (inactive) | > 100 µM (inactive) | > 100 µM (inactive) | > 100 µM (inactive) | > 100 µM (inactive) | – |
| ClCCCCOC1CCCCO1 (stereo unspecified) | > 100 µM (inactive) | > 100 µM (inactive) | > 100 µM (inactive) | > 100 µM (inactive) | > 100 µM (inactive) | > 100 µM (inactive) | > 100 µM (inactive) | > 100 µM (inactive) | – |
| CC1=Nc2c(O)nc(S)nc2NC(c2c(Cl)cccc2Cl)C1 (stereo unspecified) | 1.95 µM (inactive) | 4.43 µM (inactive) | 2.96 µM (inactive) | 2.42 µM (inactive) | 1.48 µM (inactive) | 3.05 µM (inactive) | 4.23 µM (inactive) | 3.1 µM (inactive) | 5.75 µM (inactive) |
